The molecules below were run against POLRMT (Homo sapiens, UniProt O00411) (assay: homogeneous TR-FRET assay of mitochondrial transcription (inhibition of POLRMT)). Details: isoquinolinone compounds (Table 1).
Assay type: biochemical
Protocol: The inhibitory activity of the compounds of the present invention against POLRMT were determined by assays based on Bergbrede, T., et al., “An adaptable high-throughput technology enabling the identification of specific transcription modulators,” SLAC Discov., 22, 378-386 (2017).
The ability of some compounds of the present invention to inhibit POLRMT were determined in a homogeneous TR-FRET Assay using high-throughput screening in a 384-well plate format. This method is used to monitor the activity of mitochondrial transcription through measurement of its product, a 407 bp long RNA transcript. Detection of the product is facilitated by hybridization of two DNA-oligonucleotide probes to specific and adjacent sequences within the RNA product sequence. Upon annealing of the probes, two fluorophores are coupled directly to an acceptor nucleotide probe (ATTO647, 5′), or introduced via a coupled streptavidin with a biotinylated donor nucleotide probe (Europium cryptate) that is brought into sufficient proximity to serve as a fluorescence-donor-acceptor pair. Thus, a FRET signal at 665 nm is generated upon excitation at 340 nm.
Proteins used as transcription factors (POLRMT: NP_005026.3, TFAM: NP_003192.1, TFB2M: NP_071761.1) are diluted from their stocks to working concentrations of 1 μM, 20 μM and 4 μM respectively, in a dilution buffer containing 20 mM Tris-HCl (pH 8.0), 200 mM NaCl, 10% (v/v) glycerol, 1 mM Dithiothreitol (DTT), 0.5 mM EDTA.
DNA template is a pUC18 plasmid with the mitochondrial light strand promotor sequence (1-477) cloned between HindIII and BamHI sites. The DNA template is restriction linearized proximal to the promotor 3′-end (pUC-LSP).
The reaction mixture (10 uL) containing 7.5 nM POLRMT, 15 nM of TFB2M, 30 nM of TFAM, 0.5 nM of DNA template and 500 μM nucleotide triphosphate mix (NTPs) in a reaction buffer (containing 10 mM Tris-HCl (pH 7.5), 10 mM MgCl2, 40 mM NaCl, 10 mM DTT, 0.005% (w/v) Tween-20, 160 units/ml Rnase inhibitor and 0.1 mg/mL BSA) are dispensed to compounds in microplates, using a Thermo Multidrop® dispenser, and incubated at 37° C. in a VWR INCU-Line incubator for 60 minutes after mixing. No nucleotide triphosphate mix is added to negative control samples. Microplates with compounds to be tested in the assay are prepared from 10 mM compound stocks in 100% DMSO, equal amounts of DMSO without any compound are added to positive control and negative control samples.
During the incubation, a mix of the detection reagents is prepared in a buffer such that the enzymatic reaction is terminated due to chelating of Mg-ions and increased ionic strength, containing 50 mM Tris-HCl (pH 7.5), 700 mM NaCl, 20 mM EDTA, and 0.010% (w/v) Tween-20. Europium-streptavidin is pre-incubated with a 200-fold molar excess of a random sequence oligonucleotide to block unspecific binding of oligo, for two hours at ambient temperature in the dark. Afterwards, the blocked Europium-streptavidin is kept on ice until use.
At the end of the enzymatic reaction time, 5 μL detection oligo mix in the detection buffer is added, and assay plates are mixed and kept at ambient temperature for one hour, protected from light. The concentration of the Acceptor nucleotide oligo (e.g., ATTO647N-5′-[…]-3′) and Donor nucleotide oligo (e.g., bio-5′-AACACATCTCT(-bio)GCCAAACCCCA-bio-3′) in each assay well is 1 nM, and 3 nM, respectively.
After incubation with oligo mix, 5 μL of pre-blocked Europium-streptavidin reagent is dispensed to each assay well, assay plates are again mixed and kept at ambient temperature for one hour, protected from light.
The generated signal is measured with BMG Pherastar microtiter plate reader with a TRF light unit, using excitation at 340 nm, an integration time of 200 μs, and a delay time of 100 μs, before detection at 620 nm and 665 nm. The ratio of donor- and acceptor-fluorescence is used as a measure of the generated transcript product (i.e. enzymatic activity).

Sequence of POLRMT (O00411 42-1230): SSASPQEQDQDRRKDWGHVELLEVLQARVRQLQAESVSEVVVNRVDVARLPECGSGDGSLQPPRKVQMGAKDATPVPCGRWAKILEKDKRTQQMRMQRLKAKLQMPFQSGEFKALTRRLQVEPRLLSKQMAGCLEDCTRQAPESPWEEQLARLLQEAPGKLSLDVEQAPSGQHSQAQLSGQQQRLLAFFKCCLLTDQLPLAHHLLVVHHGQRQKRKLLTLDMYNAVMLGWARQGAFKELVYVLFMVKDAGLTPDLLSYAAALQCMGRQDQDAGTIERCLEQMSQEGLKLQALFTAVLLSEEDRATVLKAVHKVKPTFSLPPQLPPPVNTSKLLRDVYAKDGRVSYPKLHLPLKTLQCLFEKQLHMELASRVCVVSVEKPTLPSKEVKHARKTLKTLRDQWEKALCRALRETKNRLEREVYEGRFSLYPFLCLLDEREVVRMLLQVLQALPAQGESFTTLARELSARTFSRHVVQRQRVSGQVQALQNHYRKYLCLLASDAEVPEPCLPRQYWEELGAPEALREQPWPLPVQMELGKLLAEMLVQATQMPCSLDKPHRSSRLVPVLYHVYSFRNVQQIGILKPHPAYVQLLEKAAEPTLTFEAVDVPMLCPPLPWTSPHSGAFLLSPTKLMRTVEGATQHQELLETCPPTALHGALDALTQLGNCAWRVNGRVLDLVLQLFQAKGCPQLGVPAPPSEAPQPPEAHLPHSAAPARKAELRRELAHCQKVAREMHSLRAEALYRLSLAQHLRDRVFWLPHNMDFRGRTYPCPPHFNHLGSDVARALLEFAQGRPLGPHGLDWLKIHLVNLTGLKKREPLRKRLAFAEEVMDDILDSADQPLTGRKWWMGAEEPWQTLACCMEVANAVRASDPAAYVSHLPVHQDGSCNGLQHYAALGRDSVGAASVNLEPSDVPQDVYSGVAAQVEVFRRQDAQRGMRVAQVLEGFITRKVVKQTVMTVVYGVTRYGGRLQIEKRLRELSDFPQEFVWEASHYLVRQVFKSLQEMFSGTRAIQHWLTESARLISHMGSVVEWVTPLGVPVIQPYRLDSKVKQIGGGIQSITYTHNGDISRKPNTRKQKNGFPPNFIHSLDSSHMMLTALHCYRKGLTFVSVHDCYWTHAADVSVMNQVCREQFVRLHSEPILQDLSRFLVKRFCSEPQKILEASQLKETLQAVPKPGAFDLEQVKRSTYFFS

IC50 [µM]	SMILES
82	CC(=O)N1CC[C@H](Oc2ccc3c(-c4ccccc4C)c[nH]c(=O)c3c2)C1 [Example 17, (S)-7-((1-acetylpyrrolidin-3-yl)oxy)-4-(o-tolyl)isoquinolin-1(2H)-one]
> 100	Cc1ccccc1-c1c[nH]c(=O)c2cc(C(=O)N3CCCC3)ccc12 [Example 19, 7-(pyrrolidine-1-carbonyl)-4-(o-tolyl)isoquinolin-1(2H)-one]
1	CNC(=O)[C@@H](C)Oc1ccc2c(-c3ccccc3C)c[nH]c(=O)c2c1 [Example 20, (R)—N-methyl-2-((1-oxo-4-(o-tolyl)-1,2-dihydroisoquinolin-7-yl)oxy)propanamide]
0.04	Cc1ccccc1-c1c[nH]c(=O)c2cc(O[C@H](C)C(=O)N3CCC[C@H](C(=O)O)C3)ccc12 [Example 22, (S)-1-((R)-2-((1-oxo-4-(o-tolyl)-1,2-dihydroisoquinolin-7-yl)oxy)propanoyl)piperidine-3-carboxylic acid]
75	Cc1ccccc1-c1c[nH]c(=O)c2cc(C(=O)N(C)C)ccc12 [Example 23, N,N-dimethyl-1-oxo-4-(o-tolyl)-1,2-dihydroisoquinoline-7-carboxamide]
0.05	Cc1ccccc1-c1c[nH]c(=O)c2cc(O[C@H](C)C(=O)N3CCC(C(=O)O)CC3)ccc12 [Example 24, (R)-1-(2-((1-oxo-4-(o-tolyl)-1,2-dihydroisoquinolin-7-yl)oxy)propanoyl)piperidine-4-carboxylic acid]
36	CNC(=O)[C@H](C)Oc1ccc2c(-c3ccccc3C)c[nH]c(=O)c2c1 [Example 28, (S)—N-methyl-2-((1-oxo-4-(o-tolyl)-1,2-dihydroisoquinolin-7-yl)oxy)propenamide]
2	Cc1ccccc1-c1c[nH]c(=O)c2cc(NC(=O)C(C)C)ccc12 [Example 30, N-(1-oxo-4-(o-tolyl)-1,2-dihydroisoquinolin-7-yl)isobutyramide]
8	CC(=O)Nc1ccc2c(-c3ccccc3C)c[nH]c(=O)c2c1 [Example 31, N-(1-oxo-4-(o-tolyl)-1,2-dihydroisoquinolin-7-yl)acetamide]
22	COCC(=O)Nc1ccc2c(-c3ccccc3C)c[nH]c(=O)c2c1 [Example 32, 2-methoxy-N-(1-oxo-4-(o-tolyl)-1,2-dihydroisoquinolin-7-yl)acetamide]
> 100	CC(=O)N1CCC(C(=O)Nc2ccc3c(-c4ccccc4C)c[nH]c(=O)c3c2)CC1 [Example 33, 1-acetyl-N-(1-oxo-4-(o-tolyl)-1,2-dihydroisoquinolin-7-yl)piperidine-4-carboxamide]
14	CC(C)Oc1ccc2c(-c3ccccc3C#N)c[nH]c(=O)c2c1 [Example 34, 2-(7-isopropoxy-1-oxo-1,2-dihydroisoquinolin-4-yl)benzonitrile]
0.4	Cc1ccccc1-c1c[nH]c(=O)c2cc(O[C@H](C)C(=O)N3CC[C@H](C(=O)O)C3)ccc12 [Example 35, (S)-1-((R)-2-((1-oxo-4-(o-tolyl)-1,2-dihydroisoquinolin-7-yl)oxy)propanoyl)pyrrolidine-3-carboxylic acid]
0.2	Cc1ccccc1-c1c[nH]c(=O)c2cc(OCC#N)ccc12 [Example 36, 2-((1-oxo-4-(o-tolyl)-1,2-dihydroisoquinolin-7-yl)oxy)acetonitrile]
0.9	N#CCOc1ccc2c(-c3ccc(F)cc3Cl)c[nH]c(=O)c2c1 [Example 37, 2-((4-(2-chloro-4-fluorophenyl)-1-oxo-1,2-dihydroisoquinolin-7-yl)oxy)acetonitrile]
> 100	Cc1ccccc1-c1c[nH]c(=O)c2cc(CN)ccc12 [Example 38, 7-(aminomethyl)-4-(o-tolyl)isoquinolin-1(2H)-one]

IC50 [µM]	SMILES
> 100	CC(=O)NCc1ccc2c(-c3ccccc3C)c[nH]c(=O)c2c1 [Example 39, N-((1-oxo-4-(o-tolyl)-1,2-dihydroisoquinolin-7-yl)methyl)acetamide]
1	CCOC(=O)C(C)Cc1ccc2c(-c3ccccc3C)c[nH]c(=O)c2c1 (centres unmarked) [Example 40, ethyl 2-methyl-3-(1-oxo-4-(o-tolyl)-1,2-dihydroisoquinolin-7-yl)propanoate]
1	Cc1ccccc1-c1c[nH]c(=O)c2cc(CC(C)C(=O)N3CCCCC3)ccc12 (centres unmarked) [Example 41, 7-(2-methyl-3-oxo-3-(piperidin-1-yl)propyl)-4-(o-tolyl)isoquinolin-1(2H)-one]
7	CC(=O)N1CCCC(Oc2ccc3c(-c4ccccc4C)c[nH]c(=O)c3c2)C1 (centres unmarked) [Example 42, 7-((1-acetylpiperidin-3-yl)oxy)-4-(o-tolyl)isoquinolin-1(2H)-one]
> 100	Cc1ccccc1-c1c[nH]c(=O)c2cc(NC(=O)C3CCN(C)CC3)ccc12 [Example 43, 1-methyl-N-(1-oxo-4-(o-tolyl)-1,2-dihydroisoquinolin-7-yl)piperidine-4-carboxamide]
2	COCc1ccc2c(-c3ccccc3C)c[nH]c(=O)c2c1 [Example 44, 7-(methoxymethyl)-4-(o-tolyl)isoquinolin-1(2H)-one]
> 100	CC(=O)N(C)Cc1ccc2c(-c3ccccc3C)c[nH]c(=O)c2c1 [Example 45, N-methyl-N-((1-oxo-4-(o-tolyl)-1,2-dihydroisoquinolin-7-yl)methyl)acetamide]
2	Cc1ccccc1-c1c[nH]c(=O)c2cc(NC(C)C(=O)N3CCOCC3)ccc12 (centres unmarked) [Example 46]
11	Cc1ccccc1-c1c[nH]c(=O)c2cc(NC(C)C(=O)N(C)C)ccc12 (centres unmarked) [Example 47]
0.2	Cc1ccccc1-c1c[nH]c(=O)c2cc(-c3ccccc3)ccc12 [Example 48, 7-phenyl-4-(o-tolyl)isoquinolin-1(2H)-one]
6	COCC(Oc1ccc2c(-c3ccccc3C)c[nH]c(=O)c2c1)C(=O)O (centres unmarked) [Example 51, 3-methoxy-2-((1-oxo-4-(o-tolyl)-1,2-dihydroisoquinolin-7-yl)oxy)propanoic acid]
25	C[C@H](Oc1ccc2c(-c3ccc(F)cc3Cl)c[nH]c(=O)c2c1)C(=O)N1CCC[C@H](C(=O)O)C1 [Example 59, (S)-1-((S)-2-((4-(2-chloro-4-fluorophenyl)-1-oxo-1,2-dihydroisoquinolin-7-yl)oxy)propanoyl)piperidine-3-carboxylic acid]
39	C[C@H](Oc1ccc2c(-c3ccc(F)cc3Cl)c[nH]c(=O)c2c1)C(=O)N1CCC(C(=O)O)CC1 [Example 60, (S)-1-(2-((4-(2-chloro-4-fluorophenyl)-1-oxo-1,2-dihydroisoquinolin-7-yl)oxy)propanoyl)piperidine-4-carboxylic acid]
0.4	Cc1ccccc1-c1c[nH]c(=O)c2cc(OC(C)C(F)(F)F)ccc12 (centres unmarked) [Example 61, 4-(o-tolyl)-7-((1,1,1-trifluoropropan-2-yl)oxy)isoquinolin-1(2H)-one]
0.06	C[C@@H](Oc1ccc2c(-c3ccc(F)cc3Cl)c[nH]c(=O)c2c1)C(=O)N1CCC[C@H](C(=O)O)C1 [Example 62, (S)-1-((R)-2-((4-(2-chloro-4-fluorophenyl)-1-oxo-1,2-dihydroisoquinolin-7-yl)oxy)propanoyl)piperidine-3-carboxylic acid]
3	Cc1ccccc1-c1c[nH]c(=O)c2cc(OCC(N)=O)ccc12 [Example 63, 2-((1-oxo-4-(o-tolyl)-1,2-dihydroisoquinolin-7-yl)oxy)acetamide]
